Measured values taken from patent US20260109694A1, “HETEROCYCLIC COMPOUNDS AND USES THEREOF” (Kumquat Biosciences Inc., priority 2023, published 2026).

Experiments:
[1] = target: T1, PTP1B (Homo sapiens, UniProt P18031); experiment: Phosphatase activity assay (DiFMUP substrate); assay type: biochemical; conditions: value bin printed in column head
T1 sequence (P18031 1-435): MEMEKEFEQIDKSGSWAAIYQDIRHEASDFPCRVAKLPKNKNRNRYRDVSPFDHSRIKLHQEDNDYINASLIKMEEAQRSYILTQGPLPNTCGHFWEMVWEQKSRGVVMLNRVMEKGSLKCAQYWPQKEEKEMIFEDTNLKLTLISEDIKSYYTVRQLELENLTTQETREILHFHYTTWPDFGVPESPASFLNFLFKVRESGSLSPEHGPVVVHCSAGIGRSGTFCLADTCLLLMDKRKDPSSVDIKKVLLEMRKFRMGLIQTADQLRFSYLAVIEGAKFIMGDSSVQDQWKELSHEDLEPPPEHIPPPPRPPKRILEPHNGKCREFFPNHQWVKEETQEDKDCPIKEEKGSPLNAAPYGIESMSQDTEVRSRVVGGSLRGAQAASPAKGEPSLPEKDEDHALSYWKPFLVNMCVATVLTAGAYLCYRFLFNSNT
In short: (§1)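 Each enzyme (PTPN2 at 0.025 ng/ul) was premixed ~2 min with a 10-point inhibitor series in 50 mM HEPES pH 7.5, 150 mM NaCl, 0.5 mM EDTA, 1 mM DTT, 0.001% Tween-20 at room temperature. DiFMUP was added at each enzyme's Km (~45 μM for PTPN2). DiFMU fluorescence was followed 15–30 min, and IC50 came from 4-parameter fits of initial rates.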

[2] = target: T2, PTPN2 (Homo sapiens, UniProt P17706); experiment: Phosphatase activity assay (DiFMUP substrate); assay type: biochemical; conditions: value bin printed in column head
T2 sequence (P17706 1-415): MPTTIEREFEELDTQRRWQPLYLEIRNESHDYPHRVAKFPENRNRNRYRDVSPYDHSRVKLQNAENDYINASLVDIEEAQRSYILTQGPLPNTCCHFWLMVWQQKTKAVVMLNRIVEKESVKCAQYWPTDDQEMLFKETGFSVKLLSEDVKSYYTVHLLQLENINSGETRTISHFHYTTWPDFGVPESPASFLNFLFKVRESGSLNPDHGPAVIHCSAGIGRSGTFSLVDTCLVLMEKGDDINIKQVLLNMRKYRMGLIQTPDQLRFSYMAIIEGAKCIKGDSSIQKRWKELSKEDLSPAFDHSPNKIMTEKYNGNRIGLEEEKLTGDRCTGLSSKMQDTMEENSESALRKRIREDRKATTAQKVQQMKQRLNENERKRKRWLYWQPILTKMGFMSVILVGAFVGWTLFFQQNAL
In short: as §1

IC50 [1] [µM]	IC50 [2] [µM]	SMILES
≤ 1	≤ 1	CC(C)C(=O)OCOc1ccc(C2=C[C@@H](CCC3CCC3)NC2)c(F)c1N1CC(=O)NS1(=O)=O [Compound 160, (R)-(4-(5-(2-cyclobutylethyl)-2,5-dihydro-1H-pyrrol-3-yl)-2-(1,1-dioxido-4-oxo-1,2,5-thiadiazolidin-2-yl)-3-fluorophenoxy)methyl isobutyrate]
≤ 1	≤ 1	CC(C)C(=O)O[C@H](C)OC(=O)N1CC(c2ccc(O)c(N3CC(=O)NS3(=O)=O)c2F)=C[C@H]1CCC1CC1 [Compound 161, (S)-1-(isobutyryloxy)ethyl (R)-2-(2-cyclopropylethyl)-4-(3-(1,1-dioxido-4-oxo-1,2,5-thiadiazolidin-2-yl)-2-fluoro-4-hydroxyphenyl)-2,5-dihydro-1H-pyrrole-1-carboxylate]
≤ 1	≤ 1	CC(C)CC[C@H]1C=C(c2ccc(O)c(N3CC(=O)NS3(=O)=O)c2F)CN1C(=O)OC(OC(=O)[C@@H](N)C(C)C)C(C)C (stereo partly drawn) [Compound 162, 1-((L-valyl)oxy)-2-methylpropyl (2S)-4-(3-(1,1-dioxido-4-oxo-1,2,5-thiadiazolidin-2-yl)-2-fluoro-4-hydroxyphenyl)-2-isopentyl-2,5-dihydro-1H-pyrrole-1-carboxylate]
≤ 1	≤ 1	CC(OC(=O)C1CCCC1)OC(=O)N1CC(c2ccc(O)c(N3CC(=O)NS3(=O)=O)c2F)=C[C@H]1CCC1CCC1 (stereo partly drawn) [Compound 163, 1-((cyclopentanecarbonyl)oxy)ethyl (2R)-2-(2-cyclobutylethyl)-4-(3-(1,1-dioxido-4-oxo-1,2,5-thiadiazolidin-2-yl)-2-fluoro-4-hydroxyphenyl)-2,5-dihydro-1H-pyrrole-1-carboxylate]
≤ 1	≤ 1	CC(C)OC(=O)N1CC(c2ccc(O)c(N3CC(=O)NS3(=O)=O)c2F)=C[C@H]1CCC1CCC1 [Compound 166, isopropyl (R)-2-(2-cyclobutylethyl)-4-(3-(1,1-dioxido-4-oxo-1,2,5-thiadiazolidin-2-yl)-2-fluoro-4-hydroxyphenyl)-2,5-dihydro-1H-pyrrole-1-carboxylate]

Second part, the compound before the results:

SMILES	IC50 [1] [µM]	IC50 [2] [µM]
CC(C)CC[C@H]1C=C(c2ccc(O)c(N3CC(=O)NS3(=O)=O)c2F)CN1C(=O)O[C@H](C)OC(=O)C1CCCC1 [Compound 159, (R)-1-((cyclopentanecarbonyl)oxy)ethyl (S)-4-(3-(1,1-dioxido-4-oxo-1,2,5-thiadiazolidin-2-yl)-2-fluoro-4-hydroxyphenyl)-2-isopentyl-2,5-dihydro-1H-pyrrole-1-carboxylate]	≤ 1	> 1
CC(=O)OC(C)OC(=O)N1CC(c2ccc(O)c(N3CC(=O)NS3(=O)=O)c2F)=C[C@H]1CCC1CCC1 (stereo partly drawn) [Compound 164, 1-acetoxyethyl (2R)-2-(2-cyclobutylethyl)-4-(3-(1,1-dioxido-4-oxo-1,2,5-thiadiazolidin-2-yl)-2-fluoro-4-hydroxyphenyl)-2,5-dihydro-1H-pyrrole-1-carboxylate]	≤ 1	≤ 1
CC(C)CC[C@H]1C=C(c2ccc(O)c(N3CC(=O)NS3(=O)=O)c2F)CN1C(=O)OC(C)OC(=O)C(C)C (stereo partly drawn) [Compound 165, 1-(isobutyryloxy)ethyl (2S)-4-(3-(1,1-dioxido-4-oxo-1,2,5-thiadiazolidin-2-yl)-2-fluoro-4-hydroxyphenyl)-2-isopentyl-2,5-dihydro-1H-pyrrole-1-carboxylate]	≤ 1	≤ 1
